The results in this text go back to patent US11384078B2, “5,6-fused-bicyclic compounds and compositions for the treatment of parasitic diseases” (NOVARTIS AG, priority 2017, dated 2022).

The term EC50 denotes the concentration giving half of the maximal effect.

Format in all cases: cell-based
The subject of assay [1] is Trypanosoma brucei brucei (Lister 427) strain. Description: Assay for growth inhibition against Trypanosoma brucei brucei (Cell TiterGlo ATP luminescence). To be noted: Trypanosoma brucei, T. brucei brucei (Lister 427); read-out: T. Brucei (HAT) EC50. Here is the method:
Assay for Growth Inhibition Against Trypanosoma brucei brucei
The proliferation is quantified by the addition of Cell TiterGlo® (Promega®) a luminescent cell viability assay that measures the number of viable cells in culture based on the quantification of cellular ATP amount, which is an indicator of metabolically active cells.
Trypanosoma brucei brucei (Lister 427) strain was grown in Hirumi 9 (HMI-9) media supplemented with 10% v/v fetal bovine serum (FBS) and 10% v/v serum plus. For measurement of cell proliferation inhibition, test compounds were three fold serially diluted in duplicates to 384-well white plates, resulting in 10 dilutions for each compound. A volume of 40 μL of T. b. brucei culture (10,000 parasites/mL) was added to each well, and the assay plates were incubated at 37° C. for 2 days in a CO2 incubator. Growth inhibition was monitored by measuring ATP levels, which, is used as a surrogate marker for growth. Relative luminescence units were measured using TECAN® M1000 after 30 min of adding 40 μl of Cell TiterGlo®. IC50 values were determined by analyzing the data using HELIOS software. IC50 is defined as the lowest concentration of the compound that inhibited 50% growth of the T. b. brucei wild type strain compared to untreated controls.
Background: In ATP-based viability assays light output follows the ATP content of the culture.

Assay [2] deals with Trypanosoma cruzi amastigotes cultured in 3T3 fibroblast cells. Description: Assay for growth inhibition of kinetoplastid parasite Trypanosoma cruzi (beta-galactosidase Tulahuen strain, CPRG readout). The following applies: Trypanosoma cruzi, Fibroblast, T. cruzi amastigotes in 3T3 fibroblast cells; read-out: Buckner infectious T. cruzi EC50. Summed up:
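3T3 fibroblasts (1,000 cells/well) plated overnight, treated with compound in DMSO, then infected with 10,000 Lac-Z-expressing Tulahuen trypomastigotes. After 6 days, 0.6 mM CPRG with 0.6% NP-40 added for 2 h at room temperature; absorbance gives relative intracellular amastigote numbers. Benznidazole and nifurtimox serve as positive controls.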

The test system of assay [3] is Leishmania donovani axenic amastigote. Description: In vitro assay for growth inhibition of Leishmania donovani axenic amastigote (Cell TiterGlo luminescence). The following applies: Leishmania donovani, L. donovani axenic amastigotes in vitro; read-out: L. donovani amastigotes EC50. An outline of the steps:
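Compound-treated wells received 9600 axenic amastigotes in RPMI 1640-based medium at pH 5.5 (37 °C, 5% CO2). Growth measured as ATP luminescence (CellTiter-Glo) after 2-day incubation; DMSO and reference compounds served as controls.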

In the case of `CC(C)c1cnc2nn(-c3cc(NC(=O)N4CCC5(CC5)C4)ccc3F)cc2c1` [Compound 220, N-{4-fluoro-3-[5-(propan-2-yl)-2H-pyrazolo[3,4-b]pyridin-2-yl]phenyl}-5-azaspiro[2.4]heptane-5-carboxamide], the EC50 is 42 nM in assay [1], 6 nM in assay [2] and 15 nM in assay [3].

With `O=C(Nc1ccc(F)c(-n2cc3cc(C(F)(F)F)cnc3n2)c1)N1CC(F)C1` [Compound 321, 3-fluoro-N-{4-fluoro-3-[5-(trifluoromethyl)-2H-pyrazolo[3,4-b]pyridin-2-yl]phenyl}azetidine-1-carboxamide], the EC50 in assay [1] came out at 5 nM; in assay [2], 11 nM; in assay [3], 18 nM.

`O=C(Nc1ccc(F)c(-n2cc3cc(CC4CCC4)cnc3n2)c1)N1CC(F)C1` [Compound 26, N-{3-[5-(cyclobutylmethyl)-2H-pyrazolo[3,4-b]pyridin-2-yl]-4-fluorophenyl}-3-fluoroazetidine-1-carboxamide]: the results for the EC50 in assay [1], in assay [2] and in assay [3] were less than 23 nM, 12 nM and 9.6 nM, respectively.

Take `CC(C)c1cnc2nn(-c3cc(NC(=O)N4CC[C@@H](C)C4)ccc3F)cc2c1` [Compound 221, (3R)-N-{4-fluoro-3-[5-(propan-2-yl)-2H-pyrazolo[3,4-b]pyridin-2-yl]phenyl}-3-methylpyrrolidine-1-carboxamide]: the EC50 in assay [1] worked out at 9 nM; in assay [2] it was 1 nM; in assay [3], 3 nM.

With `CC(C)c1cnc2nn(-c3cc(NC(=O)N4CCC4)ccc3F)cc2c1` [Compound 100, N-{4-fluoro-3-[5-(propan-2-yl)-2H-pyrazolo[3,4-b]pyridin-2-yl]phenyl}azetidine-1-carboxamide], the EC50 in assay [1] was less than 23 nM; in assay [2], 4.2 nM; in assay [3], 9.2 nM.

Take `O=C(Nc1ccc(F)c(-n2cc3cc(C4CCC4)cnc3n2)c1)N1CC[C@@H](F)C1` [Compound 45, (3R)-N-(3-{5-cyclobutyl-2H-pyrazolo[3,4-b]pyridin-2-yl}-4-fluorophenyl)-3-fluoropyrrolidine-1-carboxamide]: the 50% effective concentration (EC50) was less than 23 nM in assay [1], 28 nM in assay [2] and 40 nM in assay [3].

On to `O=C(Nc1ccc(F)c(-n2cc3cc(CC4CCC4)cnc3n2)c1)N1CC(F)(F)C1` [Compound 37, N-{3-[5-(cyclobutylmethyl)-2H-pyrazolo[3,4-b]pyridin-2-yl]-4-fluorophenyl}-3,3-difluoroazetidine-1-carboxamide], for which the values for the EC50 in assay [1], in assay [2] and in assay [3] were less than 23 nM, 26 nM and 23 nM, respectively.

For `CC(C)c1cnc2nn(-c3cc(NC(=O)C4(C)CCCO4)ccc3F)cc2c1` (stereo not drawn) [Compound 77, N-{4-fluoro-3-[5-(propan-2-yl)-2H-pyrazolo[3,4-b]pyridin-2-yl]phenyl}-2-methyloxolane-2-carboxamide], the results for the EC50 in assay [1], in assay [2] and in assay [3] were 8500 nM, 6500 nM and 17000 nM, respectively.

`CC(C)c1cnc2nn(-c3cc(NC(=O)N4CC5(CC5)C4)ccc3F)cc2c1` [Compound 222, N-{4-fluoro-3-[5-(propan-2-yl)-2H-pyrazolo[3,4-b]pyridin-2-yl]phenyl}-5-azaspiro[2.3]hexane-5-carboxamide]: the concentration for a half-maximal effect (EC50) in assay [1] worked out at 73 nM; in assay [2] it was 45 nM; in assay [3], 80 nM.

For the compound `CC(C)c1cnc2nn(-c3cc(NC(=O)c4cc5ccccc5o4)ccc3F)cc2c1` [Compound 116, N-{4-fluoro-3-[5-(propan-2-yl)-2H-pyrazolo[3,4-b]pyridin-2-yl]phenyl}-1-benzofuran-2-carboxamide], the EC50 came out at 1500 nM in assay [1], 880 nM in assay [2] and 3100 nM in assay [3].

As to `O=C(Nc1ccc(F)c(-n2cc3cc(N4CCN(CC(F)(F)F)CC4)cnc3n2)c1)N1CC[C@@H](F)C1` [Compound 253, (3R)-3-fluoro-N-(4-fluoro-3-{5-[4-(2,2,2-trifluoroethyl)piperazin-1-yl]-2H-pyrazolo[3,4-b]pyridin-2-yl}phenyl)pyrrolidine-1-carboxamide], the EC50 was 5 nM in assay [1], 4 nM in assay [2] and 3 nM in assay [3].

In the case of `CC(C)c1cnc2nn(-c3cc(NC(=O)c4ccc(C#N)o4)ccc3F)cc2c1` [Compound 112, 5-cyano-N-{4-fluoro-3-[5-(propan-2-yl)-2H-pyrazolo[3,4-b]pyridin-2-yl]phenyl}furan-2-carboxamide], the EC50 in assay [1] is less than 23 nM; in assay [2] it was 2.8 nM; in assay [3], 16 nM.

`O=C(Nc1ccc(F)c(-n2cc3cc(-n4cccn4)cnc3n2)c1)N1CC(F)C1` [Compound 319, 3-fluoro-N-{4-fluoro-3-[5-(1H-pyrazol-1-yl)-2H-pyrazolo[3,4-b]pyridin-2-yl]phenyl}azetidine-1-carboxamide]: the half-maximal effective concentration (EC50) in assay [1] was determined as 5 nM; in assay [2], 1 nM; in assay [3], 1 nM.

With `[2H]C([2H])([2H])N(C(=O)Nc1ccc(F)c(-n2cc3cc(C(C)C)cnc3n2)c1)C([2H])([2H])[2H]` [Compound 219, 1-{4-fluoro-3-[5-(propan-2-yl)-2H-pyrazolo[3,4-b]pyridin-2-yl]phenyl}-3,3-bis(^2H3)methylurea], the EC50 in assay [1] was 17 nM; in assay [2] it was 15 nM; in assay [3], 34 nM.

As to `CO[C@@H]1CCN(C(=O)Nc2ccc(F)c(-n3cc4cc(C(C)C)cnc4n3)c2)C1` [Compound 225, (3R)-N-{4-fluoro-3-[5-(propan-2-yl)-2H-pyrazolo[3,4-b]pyridin-2-yl]phenyl}-3-methoxypyrrolidine-1-carboxamide], the EC50 in assay [1] was determined as 238 nM; in assay [2], 50 nM; in assay [3], 37 nM.

Regarding `Cc1cccnc1-c1cnc2nn(-c3cc(NC(=O)N4CC[C@@H](F)C4)ccc3F)cc2c1` [Compound 4, (R)-3-fluoro-N-(4-fluoro-3-(5-(3-methylpyridin-2-yl)-2H-pyrazolo[3,4-b]pyridin-2-yl)phenyl)pyrrolidine-1-carboxamide], the concentration for a half-maximal effect (EC50) in assay [1] is less than 23 nM; in assay [2], 1 nM; in assay [3], 1.3 nM.

Take `CC(C)c1cnc2nn(-c3cc(NC(=O)N4CC5(CCC5)C4)ccc3F)cc2c1` [Compound 226, N-{4-fluoro-3-[5-(propan-2-yl)-2H-pyrazolo[3,4-b]pyridin-2-yl]phenyl}-2-azaspiro[3.3]heptane-2-carboxamide]: the EC50 was 343 nM in assay [1], 129 nM in assay [2] and 134 nM in assay [3].

On to `O=C(Nc1ccc(F)c(-n2cc3cc(CC4CCC4)cnc3n2)c1)N1CC[C@@H](F)C1` [Compound 51, (3R)-N-{3-[5-(cyclobutylmethyl)-2H-pyrazolo[3,4-b]pyridin-2-yl]-4-fluorophenyl}-3-fluoropyrrolidine-1-carboxamide], for which the EC50 was less than 23 nM in assay [1], 19 nM in assay [2] and 15 nM in assay [3].

On to `CCN(C)C(=O)Nc1ccc(F)c(-n2cc3cc(C(C)C)cnc3n2)c1` [Compound 224, 3-ethyl-1-{4-fluoro-3-[5-(propan-2-yl)-2H-pyrazolo[3,4-b]pyridin-2-yl]phenyl}-3-methylurea], for which the figures for the EC50 in assay [1], in assay [2] and in assay [3] were 67 nM, 46 nM and 111 nM, respectively.

Regarding `CC(C)c1cnc2nn(-c3cc(NC(=O)N4C[C@H]5C[C@H]5C4)ccc3F)cc2c1` [Compound 223, (1R,5S)-N-{4-fluoro-3-[5-(propan-2-yl)-2H-pyrazolo[3,4-b]pyridin-2-yl]phenyl}-3-azabicyclo[3.1.0]hexane-3-carboxamide], the values for the EC50 in assay [1], in assay [2] and in assay [3] were 64 nM, 37 nM and 82 nM, respectively.

With `O=C(Nc1ccc(F)c(-n2cc3cc(N4CC(O)C4)cnc3n2)c1)N1CC(F)C1` [Compound 181, 3-fluoro-N-{4-fluoro-3-[5-(3-hydroxyazetidin-1-yl)-2H-pyrazolo[3,4-b]pyridin-2-yl]phenyl}azetidine-1-carboxamide], the values for the concentration for a half-maximal effect (EC50) in assay [1], in assay [2] and in assay [3] were less than 23 nM, 820 nM and 25 nM, respectively.

As for `CC(C)c1cnc2nn(-c3cc(NC(=O)C4(C)CC(F)(F)C4)ccc3F)cc2c1` [Compound 117, 3,3-difluoro-N-{4-fluoro-3-[5-(propan-2-yl)-2H-pyrazolo[3,4-b]pyridin-2-yl]phenyl}-1-methylcyclobutane-1-carboxamide], the figures for the EC50 in assay [1], in assay [2] and in assay [3] were 13000 nM, 5500 nM and 9300 nM, respectively.

For `O=C(Nc1ccc(F)c(-n2cc3cc(N4CCn5ccnc5C4)cnc3n2)c1)N1CC(F)C1` [Compound 180, 3-fluoro-N-[4-fluoro-3-(5-{5H,6H,7H,8H-imidazo[1,2-a]pyrazin-7-yl}-2H-pyrazolo[3,4-b]pyridin-2-yl)phenyl}azetidine-1-carboxamide], the concentration giving a half-maximal response (EC50) worked out at 38 nM in assay [1], 3900 nM in assay [2] and 550 nM in assay [3].
